Assay results as given in PMC11597774, “Investigation of Antimicrobial and Anti-Inflammatory Efficacy of Newly Synthesized Pyrogallol-Coumarin Hybrids: In Vitro and In Silico Studies” (Pharmaceutics, 2024).
Values after ≈ are worked out from the molar mass of the structure shown. Where two headings read alike, the source gives them in different places.

Columns and labels:
[1] = system: K. pneumoniae; assay: Microdilution MIC/MMC with resazurin; assay type: cell-based, Klebsiella pneumoniae; settings: for MIC: Klebsiella pneumoniae
Protocol: (§1) The antimicrobial activity of PCH-1 and PCH-2 was tested against 13 microorganisms. The experiment included four standard strains, Staphylococcus aureus ATCC 6538, Bacillus subtilis ATCC 6633, Proteus mirabilis ATCC 12453, and Pseudomonas aeruginosa ATCC 27853; five isolates, Staphylococcus aureus, Escherichia coli, Salmonella enterica, Klebsiella pneumoniae, and Bacillus subtilis; and one probiotic strain Lactobacillus plantarum 299V. Additionally, three fungal strains were tested, including one standard strain, Candida albicans ATCC 10231, and two isolates, Saccharomyces cerevisiae and probiotic strain Saccharomyces boulardii.
(§2) The bacterial suspensions were prepared using the direct colony method. The turbidity of the initial suspension was adjusted using a densitometer (DEN-1, BioSan, Latvia). When adjusted to the turbidity of the 0.5 McFarland standard, the bacterial suspension contains approximately 10^8 colony-forming units (CFU)/mL, and the yeast suspension contains approximately 10^6 CFU/mL. For the experiment, the initial suspension was further diluted at a 1:100 ratio in a sterile 0.85% saline solution.
(§3) The antimicrobial activity was assessed by determining the minimum inhibitory concentrations (MICs) and minimum microbicidal concentrations (MMCs) using the microdilution plate method with resazurin (Alfa Aesar GmbH & Co. (KG, Karlsruhe, Germany)). For this, 96-well plates were prepared by adding 100 μL of Mueller Hinton broth (Torlak, Belgrade, Serbia) for bacterial tests and Sabouraud broth (Torlak, Belgrade, Serbia) for yeast into each well. The tested PCH-1 and PCH-2 were dissolved in 10% dimethyl sulfoxide (DMSO) and then diluted into sterile distilled water. A 100 μL sample from the stock solution of the tested compound was then added to the first row of the plate, followed by twofold serial dilutions using a multichannel pipette. This produced a concentration range from 2.69 to 0.0025 µmol/L. The method is described in detail in the reported paper.
(§4) Each test setup included growth control and sterility control. […] Minimum microbicidal concentrations (MMCs) were determined as described in detail in the reported paper.

[2] = system: P. aeruginosa ATCC 27853; assay: Microdilution MIC/MMC with resazurin; assay type: cell-based, Pseudomonas aeruginosa; settings: for MIC: Pseudomonas aeruginosa, ATCC27853
Protocol: as §1, §2, §3, §4

[3] = system: S. cerevisiae; assay: Microdilution MIC/MMC with resazurin; assay type: cell-based, Saccharomyces cerevisiae; settings: for MIC: Saccharomyces cerevisiae
Protocol: as §1, §2, §3, §4

[4] = system: S. aureus ATCC 25923; assay: Inhibition of biofilm formation (crystal violet); assay type: cell-based, Staphylococcus aureus; settings: for BIC90: S. aureus ATCC 25923, 48 h
[5] = target: T1, Soybean lipoxygenase (Type I-B) (Glycine max, UniProt P08170); assay: In vitro LOX inhibition assay; assay type: biochemical; settings: for inhibition at 25 µM / inhibition at 50 µM / inhibition at 100 µM: read-out: Anti-LOX Activity (%); for IC50: sodium linoleate substrate, tris buffer pH 9, read-out: IC50 (µM), in vitro lipoxygenase inhibitory activity
T1 construct: purchased Merck (KGaA, Darmstadt, Germany)
T1 sequence (P08170 1-839): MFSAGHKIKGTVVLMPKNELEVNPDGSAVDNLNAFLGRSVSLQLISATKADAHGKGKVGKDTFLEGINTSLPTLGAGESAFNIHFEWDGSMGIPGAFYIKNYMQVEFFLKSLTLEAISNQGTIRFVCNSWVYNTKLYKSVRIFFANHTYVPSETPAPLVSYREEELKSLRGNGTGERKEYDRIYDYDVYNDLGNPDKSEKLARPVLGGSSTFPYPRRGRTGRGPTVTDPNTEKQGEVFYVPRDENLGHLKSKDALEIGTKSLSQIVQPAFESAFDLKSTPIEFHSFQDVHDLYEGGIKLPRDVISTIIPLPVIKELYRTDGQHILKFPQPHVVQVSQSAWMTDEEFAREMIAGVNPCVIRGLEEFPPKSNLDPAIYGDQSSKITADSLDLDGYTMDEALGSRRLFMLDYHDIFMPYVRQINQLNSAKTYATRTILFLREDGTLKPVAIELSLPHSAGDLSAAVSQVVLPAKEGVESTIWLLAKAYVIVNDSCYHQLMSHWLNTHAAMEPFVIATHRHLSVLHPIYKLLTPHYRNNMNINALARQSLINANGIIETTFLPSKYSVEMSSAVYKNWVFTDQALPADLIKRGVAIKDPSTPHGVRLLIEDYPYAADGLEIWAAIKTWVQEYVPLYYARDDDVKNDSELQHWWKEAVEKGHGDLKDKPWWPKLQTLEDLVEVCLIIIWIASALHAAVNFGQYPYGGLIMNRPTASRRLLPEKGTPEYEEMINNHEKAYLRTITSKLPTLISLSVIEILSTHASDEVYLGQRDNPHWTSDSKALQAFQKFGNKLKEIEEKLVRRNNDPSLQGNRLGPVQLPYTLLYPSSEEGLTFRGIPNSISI
Source text: Soybean lipoxygenase (Type I-B) is a very often used enzyme for the investigation of anti-inflammatory properties of compounds [38]. The LOX inhibition assay measures the rate of oxidation of linoleic acid by lipoxygenase, which results in the formation of a colorless product that can be detected spectrophotometrically. This enzyme catalyzes the conversion of linoleic acid into hydroperoxy fatty acids and results in increased absorbance at 234 nm. The tested compounds dissolved in DMSO were incubated at room temperature with sodium linoleate (3 mM in tris buffer pH = 9) and enzyme solution (5 × 10^3 units/mL in saline). The activity for each tested compound was presented as IC50 value ± standard deviation (SD) of three independent measurements.

[6] = Staphylococcus aureus, ATCC25923, S. aureus ATCC 25923, 48 h, read-out: BIC50

| Compound | MMC [1] [mM] | MIC [1] [µM] | MMC [2] [mM] | MIC [2] [µM] | MMC [3] [mM] | MIC [3] [µM] | BIC90 [4] | IC50 [4, 6] [µM] | inhibition at 25 µM [5] [%] | inhibition at 30 µM [5] [%] | inhibition at 40 µM [5] [%] | inhibition at 50 µM [5] [%] | inhibition at 60 µM ([5]; 60 µM) [%] | inhibition at 100 µM [5] [%] | IC50 [5] [µM] | IC50 ([4]; ATCC25923, Staphylococcus aureus ATCC 25923, read-out: BIC50) [µg/mL] | inhibition at 20 µM ([5]; 20 µM) [%] |
| --- | --- | --- | --- | --- | --- | --- | --- | --- | --- | --- | --- | --- | --- | --- | --- | --- | --- |
| C/C(NNC(=O)c1ccc(O)c(O)c1O)=C1\C(=O)Oc2ccccc2C1=O [PCH-1, (E)-N′-(1-(2,4-dioxochroman-3-ylidene)ethyl)-2,3,4-trihydroxybenzohydrazide] | 0.34 | 170 (≈ 63 µg/mL) | 0.34 | 340 (≈ 126 µg/mL) | 2.70 | 1350 (≈ 500 µg/mL) | ˃2.70 mM | > 2700 | 32.8 ± 2.4 | 36.8 ± 2.4 | 51.4 ± 1.8 | 65.1 ± 2 | 84.9 ± 0.1 | 96.1 ± 0.7 | 38.1 |  |  |
| C/C(NNC(=O)c1cc(O)c(O)c(O)c1)=C1\C(=O)Oc2ccccc2C1=O [PCH-2, (E)-N′-(1-(2,4-dioxochroman-3-ylidene)ethyl)-3,4,5-trihydroxybenzohydrazide] | 0.34 | 170 (≈ 63 µg/mL) | 0.67 | 340 (≈ 126 µg/mL) | 2.70 | 1350 (≈ 500 µg/mL) | ˃2.70 mM | 1020 | 38.9 ± 3.1 | 41.9 ± 1.4 | 67 ± 0.9 | 71.7 ± 2.2 |  | 95.2 ± 1 | 34.1 | 378 | 20.7 ± 2.7 |
